These results are taken from ChEMBL document CHEMBL1130154, “Molecular modeling and 3D-QSAR studies on the interaction mechanism of tripeptidyl thrombin inhibitors with human alpha-thrombin” (J Med Chem, 1997).

Structures are written as SMILES. Square brackets hold non-standard residues; d marks the D form. Peptide text beside a SMILES is read from it. Tic = O=C(O)[C@@H]1Cc2ccccc2CN1

This assay has as its target Prothrombin (Homo sapiens, UniProt P00734). The assay is described as follows: In vitro inhibitory activity against human Prothrombin.
A word on the IC50: it is the midpoint of a concentration-inhibition curve. Read a high IC50 as weaker potency. `CC(C)(C)OC(=O)NC(C(=O)N1CCC[C@H]1C(=O)N[C@H](C=O)CCCN=C(N)N)c1cccc2ccccc12` (stereo in doubt; 12): half-maximal inhibition (IC50) was put at 55 nM.
With `N=C(N)NCCC[C@@H](C=O)NC(=O)[C@@H]1CCCN1C(=O)[C@@H]1Cc2ccccc2CN1` (H-[Tic]-Pro-Arg-aldehyde) the figure was 25 nM; with `CC(C)(C)OC(=O)N[C@@H](C(=O)N1CCC[C@H]1C(=O)N[C@H](C=O)CCCNC(=N)N)c1cccc2ccccc12`, 23 nM; with `C[C@H](C(=O)N1CCC[C@H]1C(=O)N[C@H](C=O)CCCNC(=N)N)c1ccccc1`, 5100 nM.
In turn, `CO[C@@H](C(=O)N1CCC[C@H]1C(=O)N[C@H](C=O)CCCN=C(N)N)c1ccccc1` gave an IC50 of 250 nM. Against the preceding compound, the IC50 is about 20-fold lower.
For `N=C(N)NCCC[C@@H](C=O)NC(=O)[C@@H]1CCCN1C(=O)[C@H]1NCCc2ccccc21`, it took 19 nM to reach half-maximal inhibition (IC50).
`CC(C)(C)OC(=O)NC(C(=O)N1CCC[C@H]1C(=O)N[C@H](C=O)CCCN=C(N)N)c1cccc2ccccc12` (stereo in doubt; 13) registered an IC50 of 85 nM.
On to `CC(C)(C)OC(=O)N[C@@H](C(=O)N1CCC[C@H]1C(=O)N[C@H](C=O)CCCN=C(N)N)c1cccc(C(F)(F)F)c1`, for which inhibition was half-maximal at 27 nM (IC50).
In turn, `C[C@@H](C(=O)N1CCC[C@H]1C(=O)N[C@H](C=O)CCCNC(=N)N)c1ccccc1` gave an IC50 of 94 nM.
On to `CC(C)(C)OC(=O)N[C@@H](C(=O)N1CCC[C@H]1C(=O)N[C@H](C=O)CCCNC(=N)N)c1ccc2ccccc2c1`, for which 18 nM corresponded to half-maximal inhibition (IC50).
For the compound `CC[C@@H](C(=O)N1CCC[C@H]1C(=O)N[C@H](C=O)CCCNC(=N)N)c1ccccc1`, inhibition was half-maximal at 130 nM (IC50).
